# Laboratory results reported in patent EP1000623A1, “Use of epinastine as antitussivum” (Boehringer Ingelheim International GmbH, priority 1998, dated 2000).
# Structures can show the parent of a compound that is named as a salt.
# Test system: place preference
# Experiment: Place conditioning (conditioned place preference, shuttle box)
# Format: in vivo, Male ICR mice
# Conditions: 1 mg/kg, s.c.; mean ± S.E., n=8; time in drug-paired minus saline-paired place, 900-s session
# Method: Male ICR mice (6 weeks old; Tokyo Laboratory Animals Science Co., Ltd., Tokyo, Japan), weighing about 30 g, were used. They had free access to food and water in an animal room which was maintained at 22 ± 1°C with a 12-hour light-dark cycle. This study was carried out in accordance with the Declaration of Helsinki and/or with the guide for the care and use of laboratory animals as adopted by the committee on the care and use of laboratory animals of Hoshi University, which is accredited by the Ministry of Education, Science, Sports and Culture, Japan.
# Place conditioning was conducted as previously using a minor modification of an unbaised procedure [J. Kamei et al., Eur. J. Pharmacol. 318 (1996) 251]. The apparatus used was a shuttle box (15 x 30 x 15 cm: w x 1 x h) which was divided into two compartments of equal size. […] The time spent in each compartment during a 900-s session was then measured in a blinded fashion by an infrared beam sensor (KN-80, Natume, Tokyo, Japan). […]
# The potency ration was calculated according to a statistical program (Program 11 of the Pharmacological Calculations System) (8). Conditioning scores represent the time spent in the drug paired place minus the time spent in the saline-paired place, and are expressed as mean ± S.E. The Wilcoxon test was used to determine whether individual doses produced a significant conditioning (P<0.05).
smiles,measurement,value
"NC1=NCC2c3ccccc3Cc3ccccc3N12 (stereo not shown) [epinastine, epinastine hydrochloride]",mean conditioning score,20.3 ± 61.8 s
